In ChEMBL document CHEMBL5038649, “Chemical Space Expansion of Flavonoids: Induction of Mitotic Inhibition by Replacing Ring B with a 10π-Electron System, Benzo[b]thiophene” (J Nat Prod, 2022):

How the values were obtained:
Format in all cases: functional, cell-based
[1] = tested on: A549; assay: Antiproliferative activity against human A549 cells assessed as reduction in cell viability after 72 hrs by SRB assay; conditions: A549, 72 h
[2] = tested on: MCF7; assay: Antiproliferative activity against human MCF7 cells assessed as reduction in cell viability after 72 hrs by SRB assay; conditions: MCF7, 72 h
[3] = tested on: KB; assay: Antiproliferative activity against human KB cells assessed as reduction in cell viability after 72 hrs by SRB assay
[4] = Antiproliferative activity against human KB-VIN cells assessed as reduction in cell viability after 72 hrs by SRB assay; conditions: KBVIN
[5] = tested on: MDA-MB-231; assay: Antiproliferative activity against human MDA-MB-231 cells assessed as reduction in cell viability after 72 hrs by SRB assay; conditions: MDA-MB-231, 72 h

| SMILES | IC50 [1] [µM] | IC50 [2] [µM] | IC50 [3] [µM] | IC50 [4] [µM] | IC50 [5] [µM] |
| --- | --- | --- | --- | --- | --- |
| O=C(/C=C/c1csc2ccccc12)c1ccccc1O | 5.3 | 6.6 | 6.2 | 5.4 | 5.3 |
| CCOc1c(OC)cc2occ(-c3csc4ccccc34)c(=O)c2c1OC | 4.8 | 4 | 4 | 0.84 | 5.2 |
| COc1cccc(/C=C/C(=O)c2csc3ccccc23)c1 | 5.5 | 7.5 | 5.7 | 5.4 | 6.2 |
| COc1ccc(/C=C/C(=O)c2csc3ccccc23)cc1 | > 10 | > 10 | > 10 | 8.1 | > 10 |
| COc1ccc(C(=O)/C=C/c2csc3ccccc23)c(O)c1 | 5.6 | 7.5 | 5.6 | 4.8 | 7.4 |
| O=C(/C=C/c1csc2ccccc12)c1cccc(Cl)c1 | > 10 | > 10 | > 10 | > 10 | > 10 |
| O=C(/C=C/c1csc2ccccc12)c1cc(Br)cc(Br)c1O | 4.2 | 5.8 | 4.8 | 1 | 4.3 |
| O=C1/C(=C/c2csc3ccccc23)Oc2ccccc21 | > 10 | > 10 | > 10 | > 10 | > 10 |
| O=C(/C=C/c1csc2ccccc12)c1cc(Cl)cc(Cl)c1O | 3.7 | 5.8 | 4.6 | 0.83 | 3.3 |
| COc1ccc(O)c(C(=O)/C=C/c2cc3ccccc3s2)c1 | > 10 | > 10 | > 10 | > 10 | > 10 |
| COc1c(OC(C)C)cc2oc(-n3cncn3)c(-c3ccccc3)c(=O)c2c1OC(C)C | > 10 | > 10 | > 10 | > 10 | > 10 |
| COc1c(OC(C)C)cc2oc(-n3cncn3)c(-c3csc4ccccc34)c(=O)c2c1OC(C)C | > 10 | > 10 | > 10 | 5 | > 10 |
| COc1c(O)cc2occ(-c3ccccc3)c(=O)c2c1O | > 10 | > 10 | > 10 | > 10 | > 10 |
| COc1c(OC(C)C)cc2ccc(-c3cc(=O)c4ccccc4o3)cc2c1OC(C)C | > 10 | > 10 | > 10 | 8.2 | > 10 |
| O=C(/C=C/c1cc2ccccc2s1)c1cc(Cl)ccc1O | > 10 | > 10 | > 10 | > 10 | > 10 |
| COc1c(OC(C)C)cc2occ(-c3csc4ccccc34)c(=O)c2c1OC(C)C | 8.9 | > 10 | > 10 | 7.3 | > 10 |
| COc1ccc(O)c(C(=O)/C=C/c2csc3ccccc23)c1 | 0.58 | 0.75 | 0.64 | 0.4 | 0.76 |
| O=C(/C=C/c1ccccc1)c1csc2ccccc12 | 9.1 | > 10 | 6.3 | 5.8 | 6.7 |
| O=c1c(-c2ccccc2)coc2ccccc12 [ISOFLAVONE] | > 10 | > 10 | > 10 | > 10 | > 10 |
| COc1ccc(/C=C/C(=O)c2csc3ccccc23)cc1OC | 5.2 | 9.4 | 4.9 | 4.7 | 6.6 |

| SMILES | IC50 [1] [µM] | IC50 [2] [µM] | IC50 [3] [µM] | IC50 [4] [µM] | IC50 [5] [µM] |
| --- | --- | --- | --- | --- | --- |
| COc1c(OC(C)C)cc2occ(-c3ccccc3)c(=O)c2c1O | > 10 | > 10 | > 10 | > 10 | > 10 |
| COc1cc(O)c(C(=O)/C=C/c2csc3ccccc23)c(OC)c1OC | 5.3 | 7.7 | 6.7 | 4.9 | 6.9 |
| O=C(/C=C/c1ccccc1)c1cccc2ccccc12 | 5 | 9.8 | 6.2 | 5.4 | 6 |
| COc1c(O)cc2occ(-c3csc4ccccc34)c(=O)c2c1O | > 10 | > 10 | > 10 | > 10 | > 10 |
| O=C(/C=C/c1cc2ccccc2s1)c1cc(Br)ccc1O | > 10 | > 10 | > 10 | > 10 | > 10 |
| O=c1c(-c2csc3ccccc23)coc2ccccc12 | > 10 | > 10 | > 10 | > 10 | > 10 |
| COc1c(OC(C)C)cc2c(c1O)C(=O)/C(=C/c1csc3ccccc13)O2 | > 10 | > 10 | > 10 | > 10 | > 10 |
| O=C(/C=C/c1csc2ccccc12)c1cc(F)ccc1O | 7.1 | > 10 | 7.4 | 5.4 | 8.4 |
| O=C(/C=C/c1csc2ccccc12)c1cc2c(cc1O)OCO2 | 4.8 | 6.9 | 5.1 | 2.1 | 6.2 |
| COc1cc(O)c(C(=O)/C=C/c2csc3ccccc23)cc1OC | 0.45 | 0.71 | 0.52 | 0.27 | 0.69 |
| O=C1/C(=C/c2ccccc2)Oc2ccccc21 [(Z)-AURONE] | > 10 | > 10 | > 10 | > 10 | > 10 |
| O=C(/C=C/c1csc2ccccc12)c1ccc2ccccc2c1O | 7.2 | > 10 | > 40 | 8.2 | > 10 |
| O=C(/C=C/c1c[nH]c2ccccc12)c1cc(Cl)ccc1O | 0.75 | 5.7 | 0.91 | 0.8 | 0.99 |
| CC(C)=CCc1cc(C(=O)/C=C/c2csc3ccccc23)c(O)cc1O | 6 | 7.4 | 7.6 | 5.4 | 8.9 |
| COc1ccc(OC)c(C(=O)/C=C/c2csc3ccccc23)c1 | 4.1 | 5.5 | 4.6 | 3.7 | 5.4 |
| CCOc1ccc(O)c(C(=O)/C=C/c2csc3ccccc23)c1 | 5.4 | 7.5 | 5.8 | 4.1 | 6.7 |
| COc1c(OC(C)C)cc2occ(-c3ccccc3)c(=O)c2c1OC(C)C | > 10 | > 10 | > 10 | > 10 | > 10 |
| COc1cc2c(=O)c(-c3csc4ccccc34)coc2c(OC)c1OC | > 10 | > 10 | > 10 | > 10 | > 10 |
| COc1c(OC(C)C)cc2occ(-c3csc4ccccc34)c(=O)c2c1O | 7.2 | > 10 | > 10 | > 10 | > 10 |
| CC(C)Oc1ccc(/C=C/C(=O)c2csc3ccccc23)cc1 | > 10 | > 10 | > 10 | > 10 | > 10 |
